Test results published in patent US10761001B2, “Devices and methods for tension measurements and applications of same” (Vanderbilt University, priority 2016, dated 2020).
Entries after “also recorded” stand apart in the source; their conditions may differ.

Experiments:
[1] = tested on: engineered cardiac tissue construct (ECTC) from neonatal rat ventricular cells; assay: I-Wire ECTC contractility under β-adrenergic stimulation; type: cell-based
Experimental: (§1) Method step 2. Cell isolation and culturing: Neonatal rat ventricular cells were obtained from 2-day-old neonatal Sprague-Dawley rats using a trypsin digestion protocol with agitation overnight at 4° C. and plating cells for 40 minutes at 37° C. The population of isolated cells is heterogeneous and besides cardiomyocytes includes cardiofibroblasts, endothelial cells, and vascular smooth muscle cells. The presence of the different cell types is important for formation of the extracellular matrix and tissue structure. The isolated cells were mixed with fibrinogen (5 mg/mL, Sigma-Aldrich, St. Louis, Mo., USA)/Matrigel™ (100 μL/mL, BD Biosciences, San Jose, Calif., USA) plus thrombin (15 μL, 100 U/mL, Sigma-Aldrich, St. Louis, Mo., USA), and pipetted in a casting mold (FIG. 21A). Thereafter, cells were kept at 37° C. in a 5% CO2 humidified cell culture incubator for 1 hour. When fibrinogen was polymerized, 2 mL of cell culture media was added per well. The culture medium consisted of DMEM (Gibco Fisher Scientific, Waltham, Mass., USA), 10% horse serum (Gibco Fisher Scientific, Waltham, Mass., USA), 2% chick embryo extract (US Biological Fisher Scientific, Waltham, Mass., USA), 1% penicillin/streptomycin (Gibco Fisher Scientific, Waltham, Mass., USA), 10 μg/mL insulin (Sigma-Aldrich, St. Louis, Mo., USA), 400 μM tranexamic acid (Sigma-Aldrich, St. Louis, Mo., USA), and 33 μg/mL aprotinin (Sigma-Aldrich, St. Louis, Mo., USA). Over time, the preparation condensed to form elongated muscle fibers of 350-400 μm in diameter and 7 mm long. After 13-15 days of culturing, the contractility and stiffness of the ECTC (FIGS. 21B and 21C) could be measured using our microscope-based optical setup (FIG. 3A).
Method step 3. Registration system for the contraction recording: To apply tensional force to the ECTC and detect contraction, a flexible PEEK tube of 365 μm in outer diameter and 120 μm bore (Putnam Plastics, Dayville, Conn., USA) and 28 mm length was glued to a Plexiglas cantilever adjuster attached to a cantilever support plate with two embedded position-control magnets (FIG. 3A). The stiffness of the probe was roughly matched to that of the ECTC; one might choose to use either a softer or stiffer probe to study ECTCs with different mechanical properties. The cantilever support plate with cantilever adjuster and flexible probe was mounted with a friction fit to the condenser of the inverted optical microscope (Eclipse Ti, Nikon, Melville, N.Y., USA) equipped with a digital camera system (Zyla sCMOS Camera, Andor Technology, Belfast, Northern Ireland). […]
Method step 4. Registration of action potential and reconstruction of electrical and mechanical restitution: Action potentials were recorded by utilizing floating micropipettes filled with 3-M KCl. […]

[2] = tested on: engineered cardiac tissue construct (ECTC) from neonatal rat ventricular cells; assay: I-Wire ECTC elasticity measurement (stretch-stress curve, Young's modulus); type: cell-based
Experimental: as §1
Method step 3. […]
At first, the linear part of the ECTC stretch-force curve was fitted using a linear equation and the amount of change of ECTC length was calculated. […]

isolated mice CMs = details: after application of blebbistatin; cited from earlier work

SMILES | contraction duration ([1]; 1 μM isoproterenol (β-adrenergic stimulation)) | contraction velocity ([1]; 1 μM isoproterenol, applied force exceeded 0.233 mN, P<0.05, N=7) | developed force ([1]; 1 μM isoproterenol, applied transverse forces greater than 0.156 mN, P<0.05, N=7) | force exerted by the ECTC during contraction and relaxation ([1]; 1 μM isoproterenol, separate analysis of systole and diastole) | decrease of ECTC stiffness ([2]; 6 μM blebbistatin) | Young's modulus of the ECTC ([2]; 6 μM blebbistatin, untreated (relaxation) 13.4±2.5 kPa, N=5, P<0.05) | slope of the fitted straight line of the stretch-stress curve ([2]; blebbistatin-treated ECTCs, 6 μM, systolic 4.9, diastolic 15.1 %/mN) | lowering of the diastolic stress (isolated mice CMs)
CC(C)NCC(O)c1ccc(O)c(O)c1 (centres unmarked) [isoproterenol] | shortening | statistically significant acceleration | significant increase | significant change occurs only in the phase of relaxation; also recorded: significant effect of the isoproterenol only during the diastolic phase | – | – | – | –
Cc1ccc2c(c1)C(=O)C1(O)CCN(c3ccccc3)C1=N2 (centres unmarked) [blebbistatin] | – | – | – | – | 23% | 10.3±2.8 kPa | 17.5 %/mN | 30%
